This note sets out measurements from patent US12583873B2, “Amino acid mineral complex having immunopotentiating activity and composition for foods, pharmaceuticals, or feeds comprising same” (priority 2018, dated 2026).

Several values for one entry are separate records, joined by “and”; a condition that tells them apart may be missing. Identical values can stand only once. Entries after “also recorded” stand apart in the source; their conditions may differ. Like-named read-outs stand apart in the source and are kept apart here.

For data set [1] the following is noted: pig, in vivo.
In data set [2] the test system is immunoglobulin (IgG) in serum. The settings on record: pig, in vivo.
Data set [3] deals with Foot-and-mouth disease antibody (FMDV type 0). The settings on record: pig, in vivo.
The conditions of data set [4]: pig, in vivo. This is another data set of the same source.
Data set [5] has as its system H1N1 virus. The data set can be described thus: H1N1 virus content in lung tissue of mice. Type of data set: in vivo. The conditions noted are these: oral 20 μg/kg/day for 5 days; for Tissues virus titers: lung tissue of H1N1-infected ICR mice.
The test system of data set [6] is H1N1 virus. The data set can be described thus: Body weight change of H1N1-infected mice. The settings on record: H1N1-infected ICR mice; for Body weight, Start point (day 0): baseline before oral 20 μg/kg/day; for Body weight as compared to the negative control group / Body weight, End point (day 5): oral 20 μg/kg/day for 5 days; for Body weight, End point (day 5): start point 100.0. Type of data set: in vivo.

With `[O-2].[Zn+2]` [CON 1, zinc oxide], in data set [1], the “Body weight, End time” value turned out to be 53.62b and the “Body weight, Start time” value worked out at 22.56. In data set [2], this molecule had an IgG of 472b mg/dL. Further, in data set [3], the “Antibody titer (PI)” value is given as 47.38b, the Positive rate was found to be 50 and the “Positive rate for the foot-and-mouth disease antibody” value was found to be 50%. In data set [4], this molecule registered a Zinc of 100c μg/dL.

For `O=S(=O)([O-])[O-].[Zn+2]` [CON 2, zinc sulfate], in data set [1], the “Body weight, End time” value was found to be 53.74b and the “Body weight, Start time” value amounted to 22.56. The IgG in data set [2] is reported as 466b mg/dL. The molecule further yielded a Tissues virus titers in the data set with H1N1 virus [5] of 4.4b Log10 TCID50. In addition, in data set [3], the “Antibody titer (PI)” value is given as 47.52b, the Positive rate came to 50 and the “Positive rate for the foot-and-mouth disease antibody” value came out at 50%. In the data set with H1N1 virus [6], the “Body weight, Start point (day 0)” value is listed as 100.0; the “Body weight as compared to the negative control group” value is “decreased body weight”; the “Body weight, End point (day 5)” value is reported as 99.9a. In data set [4], the Zinc is 98c μg/dL.

As to `N[C@@H](CC(=O)[O-])C(=O)[O-].O.[Zn+2]` [Example 1-2, zinc aspartate hydrate], in data set [1], the “Body weight as compared to CON 1 and CON 2” value is on record as “slight increase in body weight”; the “Body weight, Start time” value is on record as 22.56 ^. Moreover, in data set [2] (hydrate), the IgG is 504ab mg/dL and 546a mg/dL; the “Immunoglobulin content in blood as compared to CON 1 and CON 2” value was “significant increase; also recorded: distinct, although not significant, increase”. The “Virus content in the lung tissue” value in the data set with H1N1 virus [5] (H1N1-infected ICR mice) is recorded as “decreased significantly”. The molecule further showed a Tissues virus titers with H1N1 virus [5] of 2.1a Log10 TCID50. For the same molecule, the “Positive rate for the foot-and-mouth disease antibody” value in data set [3] was 100%. Besides, the “Production of the foot-and-mouth disease antibody as compared to CON 1 and CON 2” value (“Production … compared to CON 1 and CON 2” for short) in data set [3] (hydrate) is given as “increased slightly; also recorded: Significant increase”. In the data set on H1N1 virus [6], the “Body weight, Start point (day 0)” value was found to be 100.0; the “Body weight as compared to the negative control group” value is recorded as “did not show significant increase in body weight”; the “Body weight, End point (day 5)” value is 106.8b. In addition, the “Zinc content in blood as compared to CON 1 and CON 2” value in data set [4] is reported as “increased significantly”.

In the case of “zinc-aspartic acid complex [Comparative Example 3]”, in data set [1], the “Body weight as compared to CON 1 and CON 2” value is “slight increase in body weight”; the “Body weight, End time” value is listed as 54.55a; the “Body weight, Start time” value is 22.56 ^. In data set [2], the IgG is 489b ^ mg/dL; the “Immunoglobulin content in blood as compared to CON 1 and CON 2” value is listed as “not significantly different”. The Tissues virus titers with H1N1 virus [5] is 3.9b Log10 TCID50. In addition, in data set [3], the “Antibody titer (PI)” value amounted to 54.45b; the Positive rate is listed as 75; the “Positive rate for the foot-and-mouth disease antibody” value is 75%; the “Production … compared to CON 1 and CON 2” value is “increased slightly”. Moreover, in the data set on H1N1 virus [6], the “Body weight, Start point (day 0)” value was 100.0 ^; the “Body weight as compared to the negative control group” value is reported as “did not show significant increase in body weight”; the “Body weight, End point (day 5)” value is on record as 103.7ab.

As to “zinc-aspartic acid complex [Example 1-1]”, in data set [1], the “Body weight as compared to CON 1 and CON 2” value is recorded as “slight increase in body weight”; the “Body weight, End time” value is reported as 54.43ab; the “Body weight, Start time” value was 22.56 ^. Also, in data set [2], the IgG is 480b mg/dL; the “Immunoglobulin content in blood as compared to CON 1 and CON 2” value was “not significantly different”. In addition, the Tissues virus titers in the data set on H1N1 virus [5] was 4.1b Log10 TCID50. In addition, in data set [3], the “Antibody titer (PI)” value was 51.88b; the Positive rate came to 75; the “Positive rate for the foot-and-mouth disease antibody” value is given as 75%; the “Production … compared to CON 1 and CON 2” value is recorded as “increased slightly”. In the data set with H1N1 virus [6], the “Body weight, Start point (day 0)” value is recorded as 100.0 ^; the “Body weight as compared to the negative control group” value is recorded as “did not show significant increase in body weight”; the “Body weight, End point (day 5)” value turned out to be 104.8ab.
